Like-named read-outs stand apart in the source and are kept apart here.

For one data set, the target named is T1, human 11-beta HSD1 (Homo sapiens, UniProt P28845).
T1 construct: made in house; host or cells: E. coli
The data set is described as follows: 11 beta-HSD1 enzyme assay (HTRF cortisol), human recombinant enzyme. The note with it: read-out: Inhibition of human 11-beta HSD1 IC50. The data set is classed as biochemical.

Another data set concerns the target mouse 11-beta HSD1 (Mus musculus, UniProt P50172). The data set is described as follows: 11 beta-HSD1 enzyme assay, mice liver microsome fractions. In general terms: Liver microsomes are vesicles of endoplasmic reticulum, rich in cytochrome P450 enzymes.
A further data set addresses rat 11-beta HSD1 (Rattus norvegicus, UniProt P16232). Put plainly: 11 beta-HSD1 enzyme assay, rat liver microsome fractions. It counts as biochemical. As to conditions: read-out: Inhibition of rat 11-beta HSD1 IC50.
In the next data set the target is T2, human 11-beta HSD2 (Homo sapiens, UniProt P80365).
T2 construct: made in house; host or cells: E. coli
T2 sequence (P80365 1-405): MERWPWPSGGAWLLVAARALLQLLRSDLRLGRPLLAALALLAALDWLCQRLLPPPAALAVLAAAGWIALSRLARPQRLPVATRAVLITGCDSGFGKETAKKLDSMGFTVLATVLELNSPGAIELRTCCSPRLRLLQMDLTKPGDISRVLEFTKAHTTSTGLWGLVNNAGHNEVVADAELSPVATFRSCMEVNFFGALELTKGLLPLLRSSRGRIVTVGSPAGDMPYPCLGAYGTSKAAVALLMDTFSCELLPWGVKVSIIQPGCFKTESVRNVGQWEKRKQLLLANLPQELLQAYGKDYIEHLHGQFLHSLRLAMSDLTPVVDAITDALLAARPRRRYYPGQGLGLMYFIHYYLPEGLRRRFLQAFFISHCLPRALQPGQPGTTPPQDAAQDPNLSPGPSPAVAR
Put plainly: 11 beta-HSD2 enzyme assay, human recombinant enzyme. The data set is classed as biochemical. As to conditions: selectivity table, Example 10; read-out: Inhibition of human 11-beta HSD2 IC50. The source says: This assay was similarly applied to 11beta-HSD2, whereby cortisol, NAD, and carbenoxolon were used as the substrate, cofactor and stopping agent, respectively.

The mark [1] stands for this setting: recombinant enzyme from E. coli.

Chain of rat 11-beta HSD1 (P16232 whole entry): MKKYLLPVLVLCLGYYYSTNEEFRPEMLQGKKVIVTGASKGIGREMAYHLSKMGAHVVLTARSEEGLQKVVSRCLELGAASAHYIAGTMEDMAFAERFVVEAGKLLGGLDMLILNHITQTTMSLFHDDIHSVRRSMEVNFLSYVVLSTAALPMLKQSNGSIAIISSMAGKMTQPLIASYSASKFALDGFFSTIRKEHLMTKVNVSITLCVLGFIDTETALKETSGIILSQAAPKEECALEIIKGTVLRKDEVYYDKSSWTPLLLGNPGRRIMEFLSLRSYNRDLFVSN
T1 sequence (P28845 whole entry): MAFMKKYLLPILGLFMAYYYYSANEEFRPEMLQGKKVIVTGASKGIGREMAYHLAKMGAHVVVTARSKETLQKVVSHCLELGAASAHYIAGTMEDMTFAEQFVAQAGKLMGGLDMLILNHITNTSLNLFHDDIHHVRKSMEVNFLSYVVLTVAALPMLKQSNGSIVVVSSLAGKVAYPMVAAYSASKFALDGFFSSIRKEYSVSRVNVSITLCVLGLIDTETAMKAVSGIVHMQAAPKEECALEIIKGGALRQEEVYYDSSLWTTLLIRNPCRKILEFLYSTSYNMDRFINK
Chain of mouse 11-beta HSD1 (P50172 whole entry): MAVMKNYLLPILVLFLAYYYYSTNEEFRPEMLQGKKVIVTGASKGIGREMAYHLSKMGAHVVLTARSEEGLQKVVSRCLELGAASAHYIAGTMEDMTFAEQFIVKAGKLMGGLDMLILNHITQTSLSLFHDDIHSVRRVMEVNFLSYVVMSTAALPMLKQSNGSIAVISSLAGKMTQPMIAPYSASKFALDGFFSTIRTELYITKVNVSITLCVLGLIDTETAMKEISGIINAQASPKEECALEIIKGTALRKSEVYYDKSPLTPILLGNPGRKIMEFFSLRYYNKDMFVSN
Protocol for human 11-beta HSD1: (§1) Human recombinant 11 beta-hydroxysteroid dehydrogenase type 1 (11 beta-HSD1) and type 2 (11 beta-HSD2) enzymes were expressed in E. coli. Rat and mice liver microsome fractions were purchased from TEBU.
(§2) The 11 beta-HSD1 enzyme assay was carried out in 96 well microtiter plates in a total volume of 100 μl containing 30 mM HEPES buffer, pH 7,4 with 1 mM EDTA, substrate mixture cortisone/NADPH (200 nM/200 μM), G-6-P (1 mM) and inhibitors in serial dilutions. Reactions were initiated by addition of 10 μl 11beta-HSD1 (3 μg) from E. coli, either as microsome fractions from rat or mice liver (2.5 μg). Following mixing, the plates were shaken for 150 minutes at 37° C. The reactions were terminated with 100 Acid-18beta glycyrrhetinic stop solution. Determinations of cortisol levels in 11 beta-HSD1 preparations were monitored by HTRF (HTRF cortisol assay from C is bio international).
Protocol for mouse 11-beta HSD1: as §1, §2
Protocol for rat 11-beta HSD1: as §1, §2

With `COc1ccc(NC(=O)NC2C3CC4CC(C3)CC2C4)c(C)c1` (centres unmarked) [Ex 1, 1-Adamantan-2-yl-3-(4-methoxy-2-methyl-phenyl)-urea], the melting point (usually the temperature, or range, at which the solid turns liquid) worked out at 186 °C. Further, the IC50 (commonly the point on the concentration scale where inhibition reaches its midpoint) on human 11-beta HSD1 (setting [1]) turned out to be 15 nM. Moreover, the IC50 on mouse 11-beta HSD1 worked out at 97 nM. For the same compound, the IC50 at rat 11-beta HSD1 was 190 nM.

Consider `O=C(Nc1ccccc1C(F)(F)F)NC1C2CC3CC(C2)CC1C3` (centres unmarked) [Ex 1-3, 1-Adamantan-2-yl-3-(2-trifluoromethyl-phenyl)-urea], for which the IC50 at human 11-beta HSD1 (setting [1]) was 340 nM.

For `COc1cc(NC(=O)NC2C3CC4CC(C3)CC2C4)cc(OC)c1` (centres unmarked) [Ex 1-7, 1-Adamantan-2-yl-3-(3,5-dimethoxy-phenyl)-urea], the IC50 at human 11-beta HSD1 (setting [1]) worked out at 270 nM.

As to `O=C(NCCc1ccccc1)NC1C2CC3CC(C2)CC1C3` (centres unmarked) [Ex 1-12, 1-Adamantan-2-yl-3-phenethyl-urea], the IC50 stood at 430 nM at human 11-beta HSD1 (setting [1]), 440 nM against mouse 11-beta HSD1 and 8 nM on rat 11-beta HSD1.

With `O=C(NCCc1cccs1)NC1C2CC3CC(C2)CC1C3` (centres unmarked) [Ex 1-16, 1-Adamantan-2-yl-3-(2-thiophen-2-yl-ethyl)-urea], the IC50 at human 11-beta HSD1 (setting [1]) stood at 43 nM.

For `CCc1cccc(NC(=O)NC2C3CC4CC(C3)CC2C4)c1` (centres unmarked) [Ex 1-20, 1-Adamantan-2-yl-3-(3-ethyl-phenyl)-urea], the IC50 at human 11-beta HSD1 (setting [1]) was found to be 67 nM.

In the case of `O=C(Nc1ccc2ccccc2c1)NC1C2CC3CC(C2)CC1C3` (centres unmarked) [Ex 1-23, 1-Adamantan-2-yl-3-naphthalen-2-yl-urea], the concentration for half-maximal inhibition (IC50) on human 11-beta HSD1 (setting [1]) came to 57 nM.

With `O=C(Nc1cc(Cl)nc(Cl)c1)NC1C2CC3CC(C2)CC1C3` (centres unmarked) [Ex 1-26, 1-Adamantan-2-yl-3-(2,6-dichloro-pyridin-4-yl)-urea], the IC50 on human 11-beta HSD1 (setting [1]) was found to be 670 nM.

Turning to `Cc1cccc(CNC(=O)NC2C3CC4CC(C3)CC2C4)c1` (centres unmarked) [Ex 1-34, 1-Adamantan-2-yl-3-(3-methyl-benzyl)-urea], the IC50 at human 11-beta HSD1 (setting [1]) worked out at 740 nM.

As for `O=C(NC1CCCC1)NC1C2CC3CC(C2)CC1C3` (centres unmarked) [Ex 1-39, 1-Adamantan-2-yl-3-cyclopentyl-urea], the IC50 on human 11-beta HSD1 (setting [1]) was 370 nM; against mouse 11-beta HSD1, 355 nM; at rat 11-beta HSD1 it was 47 nM.

`O=C(NCc1ccco1)NC1C2CC3CC(C2)CC1C3` (centres unmarked) [Ex 1-44, 1-Adamantan-2-yl-3-furan-2-ylmethyl-urea]: the results for the IC50 at human 11-beta HSD1 (setting [1]) and on mouse 11-beta HSD1 were 2100 nM and 3440 nM, respectively.

Regarding `C[C@@H](NC(=O)NC1C2CC3CC(C2)CC1C3)c1ccccc1` (stereo partly drawn) [Ex 1-61, 1-Adamantan-2-yl-3-((R)-1-phenyl-ethyl)-urea], the IC50 on human 11-beta HSD1 (setting [1]) stood at 16 nM.

Turning to `O=C(NC1C2CC3CC(C2)CC1C3)N1CCCC1` (centres unmarked) [Ex 3-3, Pyrrolidine-1-carboxylic acid adamantan-2-ylamide], the IC50 at human 11-beta HSD1 (setting [1]) worked out at 720 nM; at rat 11-beta HSD1, 1320 nM.

Consider `Cc1c(NC(=O)NC2C3CC4CC(C3)CC2C4)cccc1C(=O)O` (centres unmarked) [Ex 6, 3-(3-Adamantan-2-yl-ureido)-2-methyl-benzoic acid], for which, at human 11-beta HSD1 (setting [1]), the IC50 stood at 550 nM.

For `Cc1cc(O)ccc1NC(=O)NC1C2CC3CC(C2)CC1C3` (centres unmarked) [Ex 7, 1-Adamantan-2-yl-3-(4-hydroxy-2-methyl-phenyl)-urea], the melting point was in the range of 212 to 214 °C.

`Cc1cc(OCCN2CCCCC2)ccc1NC(=O)NC1C2CC3CC(C2)CC1C3` (centres unmarked) [Ex 8, 1-Adamantan-2-yl-3-(2-methyl-4-(2-piperidin-1-yl-ethoxyl)phenyl)-urea]: the IC50 at mouse 11-beta HSD1 (read-out: Inhibition of mouse 11-beta HSD1 IC50, mice liver microsome fractions) is 1240 nM; at rat 11-beta HSD1, 1460 nM.

For the compound `COc1ccc(NC(=O)NC2C3CC4CC(C3)CC2C4)c(C)c1` (centres unmarked) [drawing 13], the IC50 was 12 nM on human 11-beta HSD1 (selectivity table, Example 10) and greater than 10000 nM on human 11-beta HSD2.

As for `O=C(NC1CCCC1)NC1C2CC3CC(C2)CC1C3` (centres unmarked) [drawing 14], the half-maximal inhibitory concentration (IC50) is 370 nM on human 11-beta HSD1 (selectivity table, Example 10) and greater than 10000 nM at human 11-beta HSD2.

For the compound `C[C@@H](NC(=O)NC1C2CC3CC(C2)CC1C3)c1ccccc1` (some centres unmarked) [drawing 15], the IC50 on human 11-beta HSD1 (selectivity table, Example 10) is 16 nM; at human 11-beta HSD2, greater than 10000 nM.
